Drawing on BindingDB's records for doi:10.1111/cbdd.12265 (Birla Institute of Technology, 2014), this text covers IC50 for 25 molecules.

Molecules are shown by their SMILES. Bounds are passed on as bounds.

For this assay, the target named is T1, Secreted chorismate mutase (Mycobacterium tuberculosis (strain ATCC 25618 / H37Rv), UniProt P9WIB9).
T1 sequence (P9WIB9 whole entry): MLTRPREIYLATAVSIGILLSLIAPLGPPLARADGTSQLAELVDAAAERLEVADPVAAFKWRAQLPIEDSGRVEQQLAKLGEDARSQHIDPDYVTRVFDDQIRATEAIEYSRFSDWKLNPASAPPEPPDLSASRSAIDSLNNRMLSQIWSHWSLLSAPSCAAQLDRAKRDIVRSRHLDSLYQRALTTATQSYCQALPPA
Description: CM Assay. Particulars: 37 °C. As to the method:
The reaction was initiated by the addition of 150pmoles of enzyme to a mixture of inhibitor (40µM, 20 µM, 10 µM, 5 µM, 1 µM and 0.5 µM ), 20µM chorismic acid in 50mM Tris-HCl, 0.5mM EDTA, 0.1mg/ml BSA, 10mM β-mercaptoethanol (pH-7.5). The assay mixture was incubated at 37°C for 5 min and the reaction was terminated by the addition of 40µL of 1N HCl and further incubation at 37°C for 1 to 5 min. Phenyl pyruvate formed at the end of reaction is converted to chromophoric base with the addition of 80µL 2.5N NaOH. The absorbance of each sample was read at 320nm. Positive control contained the assay mixture with carvacrol(40µM, 20 µM, 10 µM, 5 µM, 1 µM and 0.5 µM ).

Broadly, the IC50 is the concentration at which inhibition is half-maximal. Low values mean higher potency, high ones lower potency. Regarding `O=C1Nc2ccc(-c3cccc(Cl)c3Cl)cc2C1=O` [5‐(2,3‐dichlorophenyl)‐1H‐indole‐2,3‐dione (Compound 17)], the IC50 turned out to be 95.7 µM. Consider `CC(=O)n1c(O)c(NC(=S)N=N)c2ccccc21` [1‐[(3Z)‐1‐acetyl‐2‐oxoindol‐3‐ylidene]‐3‐ aminothiourea (Compound 11)], for which the IC50 stood at 30.5 µM.

Molecule `CCN1C(=O)C(=O)c2ccccc21` [1‐ethylindole‐2,3‐dione (Compound 3)] registered an IC50 of 22.7 µM.

Take `O=C1Nc2ccccc2/C1=N/c1nc2ccc([N+](=O)[O-])cc2s1` [(3Z)‐3‐[(6‐nitro‐1,3‐benzothiazol‐2‐yl)imino]‐1H‐ indol‐2‐one (Compound 14)]: the half-inhibitory concentration (IC50) was greater than 100 µM.

`O=C1C(=O)N(c2ccccc2)c2ccccc21` [1-phenyl-2,3-dihydro-1H-indole-2,3-dione] registered an IC50 of 23.3 µM. Molecule `Cc1ccc(C)c(-c2ccc3c(c2)C(=O)C(=O)N3)c1` [5‐(2,5‐dimethylphenyl)‐1H‐indole‐2,3‐dione (Compound 18)] had an IC50 of 36.5 µM.

On to `CC(=O)N1C(=O)C(=O)c2ccccc21` [Acetylisatin (Compound 7)], for which 0.99 µM corresponded to half-maximal inhibition (IC50). In turn, `CC(C)N1C(=O)C(=O)c2ccccc21` [1‐isopropylindole‐2,3‐dione (Compound 4)] displayed an IC50 of 75.1 µM.

In turn, `O=C1Nc2ccccc2C1=O` [2,3-dihydro-1H-indole-2,3-dione] showed an IC50 of 1.08 µM. With `CN1C(=O)C(=O)c2ccccc21` [1-methyl-2,3-dihydro-1H-indole-2,3-dione] the figure was 1.96 µM. Take `O=C1Nc2ccc(N3CCCCC3)cc2C1=O` [5‐(piperidin‐1‐yl)‐1H‐indole‐2,3‐dione (Compound 22)]: the IC50 was determined as 25.6 µM. The figure for `O=C1Nc2ccccc2/C1=C/c1ccc([N+](=O)[O-])s1` [3-((5-nitrothiophen-2-yl)methylene)indolin-2-one (Compound 25)] is 0.93 µM; for `O=C1Nc2ccccc2/C1=N/c1ncc([N+](=O)[O-])s1` [(3Z)‐3‐[(5‐nitro‐1,3‐thiazol‐2‐yl)imino]‐1H‐indol‐2‐ one (Compound 13)] it is greater than 100 µM. The figure for `NNC(=S)N=C1C(=O)Nc2ccccc21` [3‐amino‐1‐[(3Z)‐2‐oxo‐1H‐indol‐3‐ylidene]thiourea (Compound 9)] is 66.9 µM. The figure for `C=CCN1C(=O)C(=O)c2ccccc21` [1‐(prop‐2‐en‐1‐yl)indole‐2,3‐dione (Compound 5)] is 96.6 µM.

`CN1CCN(c2ccc3c(c2)C(=O)C(=O)N3)CC1` [5‐(4‐methylpiperazin‐1‐yl)‐1H‐indole‐2,3‐dione (Compound 20)] returned an IC50 of 31.9 µM. `O=C1Nc2ccc(-c3ccccc3)cc2C1=O`: 37.1 µM corresponded to half-maximal inhibition (IC50). `O=NC1C(=O)Nc2ccccc21` (stereo not given) [(3Z)‐3‐(hydroxyimino)‐1H‐indol‐2‐one (Compound 15)]: the IC50 was 98.1 µM. In turn, `O=C1Nc2ccc(N3CCN(c4cccc(C(F)(F)F)c4)CC3)cc2C1=O` [5‐{4‐[3‐(trifluoromethyl)phenyl]piperazin‐1‐yl}‐1H‐ indole‐2,3‐dione (Compound 21)] showed an IC50 of 55.7 µM. `CC(=O)N1C(=O)C(=NC(=O)NN)c2ccccc21` [1‐[(3Z)‐1‐acetyl‐2‐oxoindol‐3‐ylidene]‐3‐aminourea (Compound 12)] registered an IC50 of 25 µM. `O=C1Nc2ccc(N3CCNCC3)cc2C1=O` [5‐(piperazin‐1‐yl)‐1H‐indole‐2,3‐dione (Compound 19)] had an IC50 of 39.9 µM. As to `O=C1Nc2ccc(N3CCN(C(=O)c4ccco4)CC3)cc2C1=O` [5‐[4‐(furan‐2‐carbonyl)piperazin‐1‐yl]‐1H‐indole‐ 2,3‐dione (Compound 23)], the IC50 was determined as 28.8 µM. In the case of `CC(C)(C)C(=O)N1C(=O)C(=O)c2ccccc21` [1‐(2,2‐dimethylpropanoyl)indole‐2,3‐dione (Compound 8)], it took 41 µM to reach half-maximal inhibition (IC50).

`O=C1Nc2ccccc2/C1=C/c1ccc([N+](=O)[O-])cc1` [3-(4-nitrobenzylidene)indolin-2-one (Compound 24)] gave an IC50 of 1.01 µM. Molecule `NNC(=O)/N=C1\C(=O)Nc2ccccc21` [3‐amino‐1‐[(3Z)‐2‐oxo‐1H‐indol‐3‐ylidene]urea (Compound 10)] yielded an IC50 of 54.1 µM.
